Data published in patent US12077503B2, “Substituted cyclic amides and their use as herbicides” (FMC CORPORATION, priority 2015, dated 2024).

What was measured:
Assay type in all cases: in vivo
Kochia (Kochia scoparia) [1] = assay: Test A preemergence; settings: Bassia scoparia, pre-emergence, 240 h, 0 to 100 scale where 0 is no effect and 100 is complete control, read-out: Kochia plant response rating; for pest or weed control at 31 g/ha: 31 g ai/ha, Preemergence; for pest or weed control at 125 g/ha: 125 g ai/ha, preemergence, approx. 10 d
Method in brief: (§1)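 Each rating is a visual injury score from 0 to 100 given about 10 d after treatment, judged against untreated controls kept alongside in the greenhouse. In loam soil–sand blend, seeds got a preemergence directed soil spray, while postemergence plants were 2 to 10 cm tall at spraying.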

[2] = system: barnyardgrass (Echinochloa crus-galli); assay: Test A preemergence; settings: Echinochloa crus-galli, pre-emergence, 240 h, 0 to 100 scale where 0 is no effect and 100 is complete control, read-out: Barnyardgrass plant response rating; for pest or weed control at 31 g/ha: 31 g ai/ha, Preemergence; for pest or weed control at 125 g/ha: 125 g ai/ha, preemergence, approx. 10 d
Method in brief: as §1

[3] = system: giant foxtail (Setaria faberii); assay: Test A preemergence; settings: Setaria faberi, pre-emergence, 240 h, 0 to 100 scale where 0 is no effect and 100 is complete control, read-out: Foxtail, Giant plant response rating; for pest or weed control at 31 g/ha: 31 g ai/ha, Preemergence; for pest or weed control at 125 g/ha: 125 g ai/ha, preemergence, approx. 10 d
Method in brief: as §1

[4] = system: pigweed (Amaranthus retroflexus); assay: Test A preemergence; settings: Amaranthus retroflexus, pre-emergence, 240 h, 0 to 100 scale where 0 is no effect and 100 is complete control, read-out: Pigweed plant response rating; for pest or weed control at 31 g/ha: 31 g ai/ha, Preemergence; for pest or weed control at 125 g/ha: 125 g ai/ha, preemergence, approx. 10 d
[5] = system: ragweed (common ragweed, Ambrosia elatior); assay: Test A preemergence; settings: Ambrosia artemisiifolia, pre-emergence, 240 h, 0 to 100 scale where 0 is no effect and 100 is complete control, read-out: Ragweed plant response rating; for pest or weed control at 31 g/ha: 31 g ai/ha, Preemergence; for pest or weed control at 125 g/ha: 125 g ai/ha, preemergence, approx. 10 d
Method in brief: as §1

[6] = system: ryegrass, Italian (Italian ryegrass, Lolium multiflorum); assay: Test A preemergence; settings: Lolium multiflorum, pre-emergence, 240 h, 0 to 100 scale where 0 is no effect and 100 is complete control, read-out: Ryegrass, Italian plant response rating; for pest or weed control at 31 g/ha: 31 g ai/ha, Preemergence; for pest or weed control at 125 g/ha: 125 g ai/ha, preemergence, approx. 10 d
Method in brief: as §1

[7] = system: Galium (catchweed bedstraw, Galium aparine); assay: Test A postemergence; settings: Galium, post-emergence, 240 h; for pest or weed control at 125 g/ha: 125 g ai/ha, postemergence, visual injury on 0 to 100 scale (0 no effect, 100 complete control), approx. 10 d, read-out: Galium plant response rating; for pest or weed control at 31 g/ha: Postemergence, 31 g ai/ha, visual injury after approx. 10 d, 0 to 100 scale, 0 no effect, 100 complete control, read-out: Plant response rating, Galium
Method in brief: as §1

Kochia (Kochia scoparia) [8] = assay: Test A postemergence; settings: Bassia scoparia, post-emergence, 240 h; for pest or weed control at 125 g/ha: 125 g ai/ha, postemergence, visual injury on 0 to 100 scale (0 no effect, 100 complete control), approx. 10 d, read-out: Kochia plant response rating; for pest or weed control at 31 g/ha: Postemergence, 31 g ai/ha, visual injury after approx. 10 d, 0 to 100 scale, 0 no effect, 100 complete control, read-out: Plant response rating, Kochia
Method in brief: as §1

[9] = system: barnyardgrass (Echinochloa crus-galli); assay: Test A postemergence; settings: Echinochloa crus-galli, post-emergence, 240 h; for pest or weed control at 125 g/ha: 125 g ai/ha, postemergence, visual injury on 0 to 100 scale (0 no effect, 100 complete control), approx. 10 d, read-out: Barnyardgrass plant response rating; for pest or weed control at 31 g/ha: Postemergence, 31 g ai/ha, visual injury after approx. 10 d, 0 to 100 scale, 0 no effect, 100 complete control, read-out: Plant response rating, Barnyardgrass
Method in brief: as §1

[10] = system: blackgrass (Alopecurus myosuroides); assay: Test A postemergence; settings: Alopecurus myosuroides, post-emergence, 240 h; for pest or weed control at 125 g/ha: 125 g ai/ha, postemergence, visual injury on 0 to 100 scale (0 no effect, 100 complete control), approx. 10 d, read-out: Blackgrass plant response rating; for pest or weed control at 31 g/ha: Postemergence, 31 g ai/ha, visual injury after approx. 10 d, 0 to 100 scale, 0 no effect, 100 complete control, read-out: Plant response rating, Blackgrass
Method in brief: as §1

corn (Zea mays) = assay: Test A postemergence; settings: Zea mays, post-emergence, 240 h; for plant injury at 125 g/ha: 125 g ai/ha, postemergence, visual injury on 0 to 100 scale (0 no effect, 100 complete control), approx. 10 d, read-out: Corn plant response rating; for Corn plant response rating (crop injury, 0 = no effect, 100 = complete kill) at 31 g/ha: Postemergence, 31 g ai/ha, visual injury after approx. 10 d, 0 to 100 scale, 100 complete control
Method in brief: as §1

[11] = system: giant foxtail (Setaria faberii); assay: Test A postemergence; settings: Setaria faberi, post-emergence, 240 h; for pest or weed control at 125 g/ha: 125 g ai/ha, postemergence, visual injury on 0 to 100 scale (0 no effect, 100 complete control), approx. 10 d, read-out: Foxtail, Giant plant response rating; for pest or weed control at 31 g/ha: Postemergence, 31 g ai/ha, visual injury after approx. 10 d, 0 to 100 scale, 0 no effect, 100 complete control, read-out: Plant response rating, Foxtail, Giant
Method in brief: as §1

[12] = system: pigweed (Amaranthus retroflexus); assay: Test A postemergence; settings: Amaranthus retroflexus, post-emergence, 240 h; for pest or weed control at 125 g/ha: 125 g ai/ha, postemergence, visual injury on 0 to 100 scale (0 no effect, 100 complete control), approx. 10 d, read-out: Pigweed plant response rating; for pest or weed control at 31 g/ha: Postemergence, 31 g ai/ha, visual injury after approx. 10 d, 0 to 100 scale, 0 no effect, 100 complete control, read-out: Plant response rating, Pigweed
Method in brief: as §1

[13] = system: ragweed (common ragweed, Ambrosia elatior); assay: Test A postemergence; settings: Ambrosia artemisiifolia, post-emergence, 240 h; for pest or weed control at 125 g/ha: 125 g ai/ha, postemergence, visual injury on 0 to 100 scale (0 no effect, 100 complete control), approx. 10 d, read-out: Ragweed plant response rating; for pest or weed control at 31 g/ha: Postemergence, 31 g ai/ha, visual injury after approx. 10 d, 0 to 100 scale, 0 no effect, 100 complete control, read-out: Plant response rating, Ragweed
Method in brief: as §1

[14] = system: ryegrass, Italian (Italian ryegrass, Lolium multiflorum); assay: Test A postemergence; settings: Lolium multiflorum, post-emergence, 240 h; for pest or weed control at 125 g/ha: 125 g ai/ha, postemergence, visual injury on 0 to 100 scale (0 no effect, 100 complete control), approx. 10 d, read-out: Ryegrass, Italian plant response rating; for pest or weed control at 31 g/ha: Postemergence, 31 g ai/ha, visual injury after approx. 10 d, 0 to 100 scale, 0 no effect, 100 complete control, read-out: Plant response rating, Ryegrass, Italian
Method in brief: as §1

[15] = system: wheat (Triticum aestivum); assay: Test A postemergence; settings: Triticum aestivum, post-emergence, 240 h; for plant injury at 125 g/ha: 125 g ai/ha, postemergence, visual injury on 0 to 100 scale (0 no effect, 100 complete control), approx. 10 d, read-out: Wheat plant response rating; for plant injury at 31 g/ha: Postemergence, 31 g ai/ha, visual injury after approx. 10 d, 0 to 100 scale, 0 no effect, 100 complete control, read-out: Plant response rating, Wheat
Method in brief: as §1

[16] = system: barnyardgrass (Echinochloa crus-galli); assay: Test B flooded paddy test; settings: Echinochloa crus-galli, 250 g ai/ha, Flood; 0 to 100 scale where 0 is no effect and 100 is complete control; read-out: Barnyardgrass plant response rating
Method in brief: (§2)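 Visual ratings (0 none to 100 complete control) are relative to untreated plants, taken 13–15 d after treatment in a greenhouse. Test material went straight into floodwater standing 3 cm above the soil, kept constant, on plants at the 2-leaf stage.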

[17] = system: ducksalad (Heteranthera limosa); assay: Test B flooded paddy test; settings: Heteranthera limosa, 250 g ai/ha, Flood; 0 to 100 scale where 0 is no effect and 100 is complete control; read-out: Ducksalad plant response rating
Method in brief: as §2

rice (Oryra sativa) = assay: Test B flooded paddy test; settings: Oryza sativa, 250 g ai/ha, Flood; 0 to 100 scale where 0 is no effect and 100 is complete control; read-out: Rice plant response rating
Method in brief: as §2

[18] = system: sedge, umbrella (small-flower umbrella sedge, Cyperus difformis); assay: Test B flooded paddy test; settings: Cyperus difformis, 250 g ai/ha, Flood; 0 to 100 scale where 0 is no effect and 100 is complete control; read-out: Sedge, Umbrella plant response rating
Method in brief: as §2

Row | SMILES | pest or weed control at 31 g/ha (Kochia (Kochia scoparia) [1]) [%] | pest or weed control at 125 g/ha (Kochia (Kochia scoparia) [1]) [%] | pest or weed control at 31 g/ha [2] [%] | pest or weed control at 125 g/ha [2] [%] | pest or weed control at 31 g/ha [3] [%] | pest or weed control at 125 g/ha [3] [%] | pest or weed control at 31 g/ha [4] [%] | pest or weed control at 125 g/ha [4] [%] | pest or weed control at 31 g/ha [5] [%] | pest or weed control at 125 g/ha [5] [%] | pest or weed control at 31 g/ha [6] [%] | pest or weed control at 125 g/ha [6] [%] | pest or weed control at 125 g/ha [7] [%] | pest or weed control at 31 g/ha [7] [%] | pest or weed control at 125 g/ha (Kochia (Kochia scoparia) [8]) [%] | pest or weed control at 31 g/ha (Kochia (Kochia scoparia) [8]) [%] | pest or weed control at 125 g/ha [9] [%] | pest or weed control at 31 g/ha [9] [%] | pest or weed control at 125 g/ha [10] [%] | pest or weed control at 31 g/ha [10] [%] | other results
1 | C=C(C)c1cccc([C@H]2CN(C)C(=O)[C@@H]2C(=O)Nc2cccc(F)c2F)c1 [Compound 1085] | 0 | 0 | 0 | 90 | 90 | 100 | 0 | 0 | 0 | 0 | 0 | 0 | 60 | 40 | 20 | 0 | 90 | 40 | 20 | 0 | plant injury at 125 g/ha (corn (Zea mays)): 20%; Corn plant response rating (crop injury, 0 = no effect, 100 = complete kill) at 31 g/ha (corn (Zea mays)): 20%; pest or weed control at 125 g/ha [11]: 60%; pest or weed control at 31 g/ha [11]: 0%; pest or weed control at 125 g/ha [12]: 20%; pest or weed control at 31 g/ha [12]: 0%; pest or weed control at 125 g/ha [13]: 0%; pest or weed control at 31 g/ha [13]: 0%; pest or weed control at 125 g/ha [14]: 20%; pest or weed control at 31 g/ha [14]: 0%; plant injury at 125 g/ha [15]: 20%; plant injury at 31 g/ha [15]: 0%; pest or weed control at 250 g/ha [16]: 60%; pest or weed control at 250 g/ha [17]: 30%; pest or weed control at 250 g/ha (rice (Oryra sativa)): 25%; pest or weed control at 250 g/ha [18]: 0%
2 | C=C(C)c1cccc([C@H]2CN(C)C(=O)[C@@H]2C(=O)Nc2cccc(F)c2C)c1 [Compound 1086] | 0 | 0 | 80 | 80 | 90 | 100 | 0 | 0 | 0 | 0 | 0 | 30 | 20 | 0 | 0 | 0 | 90 | 30 | 0 | 0 | plant injury at 125 g/ha (corn (Zea mays)): 30%; Corn plant response rating (crop injury, 0 = no effect, 100 = complete kill) at 31 g/ha (corn (Zea mays)): 0%; pest or weed control at 125 g/ha [11]: 60%; pest or weed control at 31 g/ha [11]: 10%; pest or weed control at 125 g/ha [12]: 0%; pest or weed control at 31 g/ha [12]: 0%; pest or weed control at 125 g/ha [13]: 0%; pest or weed control at 31 g/ha [13]: 0%; pest or weed control at 125 g/ha [14]: 0%; pest or weed control at 31 g/ha [14]: 0%; plant injury at 125 g/ha [15]: 20%; plant injury at 31 g/ha [15]: 0%; pest or weed control at 250 g/ha [16]: 45%; pest or weed control at 250 g/ha [17]: 40%; pest or weed control at 250 g/ha (rice (Oryra sativa)): 0%; pest or weed control at 250 g/ha [18]: 0%
